Test results published in PMC10213797 (Acta Pharmaceutica Sinica. B, 2023).

Key:
[1] = DPPH radical-scavenging assay; settings: means ± SEM (n = 2, in triplicates); for EC50: read-out: Radical-scavenging DPPH assay EC50
Aβ1–42 = Aβ1–42 (Homo sapiens, UniProt P05067); test: Aβ1–42 aggregation inhibition, ThT fluorescence assay; assay type: biochemical; settings: 10 μmol/L ligand and 1.5 μmol/L Aβ1–42; mean ± SD (n ≥ 3)
BBB-PAMPA permeability = settings: pH 7.4, 4 h, 25 °C, brain sink buffer; for Papp at 4 h, 100 μmol/L: PAMPA, pH 7.4, BBB–PAMPA permeability Papp (mean ± SD)
hBChE = hBChE (Homo sapiens, UniProt P06276); test: hBChE inhibition, Ellman's method; assay type: biochemical; settings: IC50 ± SEM hBChE, Table 1; n = 3, in triplicates
hAChE = hAChE (Homo sapiens, UniProt P22303); test: hAChE inhibition, Ellman's method; assay type: biochemical
Chain of hAChE (P22303 32-614): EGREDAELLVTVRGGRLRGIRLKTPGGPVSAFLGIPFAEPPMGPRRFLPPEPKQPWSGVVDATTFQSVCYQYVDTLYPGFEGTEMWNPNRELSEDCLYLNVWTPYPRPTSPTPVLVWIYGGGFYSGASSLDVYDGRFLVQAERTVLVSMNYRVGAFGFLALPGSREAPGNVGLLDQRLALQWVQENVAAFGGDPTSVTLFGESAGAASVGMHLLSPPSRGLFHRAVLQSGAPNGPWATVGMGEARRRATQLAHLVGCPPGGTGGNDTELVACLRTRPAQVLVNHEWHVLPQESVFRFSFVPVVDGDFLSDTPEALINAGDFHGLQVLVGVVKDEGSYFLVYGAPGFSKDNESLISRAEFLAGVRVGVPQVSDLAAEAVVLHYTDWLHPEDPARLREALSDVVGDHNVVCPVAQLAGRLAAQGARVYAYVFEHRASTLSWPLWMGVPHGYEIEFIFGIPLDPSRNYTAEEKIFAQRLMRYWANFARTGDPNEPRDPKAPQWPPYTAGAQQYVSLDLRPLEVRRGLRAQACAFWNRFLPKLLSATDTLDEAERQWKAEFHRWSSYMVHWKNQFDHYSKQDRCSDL

Chain of Aβ1–42 (P05067 672-713): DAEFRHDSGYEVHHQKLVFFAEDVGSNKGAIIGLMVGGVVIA
Chain of hBChE (P06276 29-602): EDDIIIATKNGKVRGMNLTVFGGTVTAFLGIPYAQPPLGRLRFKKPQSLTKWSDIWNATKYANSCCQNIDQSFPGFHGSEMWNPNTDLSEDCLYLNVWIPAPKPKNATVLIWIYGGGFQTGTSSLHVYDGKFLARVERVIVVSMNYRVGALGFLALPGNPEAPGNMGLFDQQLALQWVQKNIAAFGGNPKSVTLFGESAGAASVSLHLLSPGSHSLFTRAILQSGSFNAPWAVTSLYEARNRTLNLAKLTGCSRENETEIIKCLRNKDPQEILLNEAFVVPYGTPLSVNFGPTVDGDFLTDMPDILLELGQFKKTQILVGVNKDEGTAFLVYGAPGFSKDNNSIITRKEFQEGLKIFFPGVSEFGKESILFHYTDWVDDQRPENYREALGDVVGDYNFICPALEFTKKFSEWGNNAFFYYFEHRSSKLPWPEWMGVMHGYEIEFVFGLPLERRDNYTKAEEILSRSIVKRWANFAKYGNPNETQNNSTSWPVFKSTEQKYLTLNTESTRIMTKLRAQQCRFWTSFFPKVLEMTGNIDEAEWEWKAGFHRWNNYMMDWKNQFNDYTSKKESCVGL

C#CCN1CCN(CCCOc2cccc3ccc(C=O)nc23)CC1 [QN 32, 8-(3-(4-(Prop-2-yn-1-yl)piperazin-1-yl)propoxy)quinoline-2-carbaldehyde]
Radical-scavenging DPPH assay EC50 [1]: n.a. ^d (n.a., not active–% DPPH reduced at 100 μmol/L concentration lower than 10%)
Inhibition of Aβ1–42 aggregation (Aβ1–42): 40.7 ± 2.4%∗
Papp at 4 h, 100 μmol/L (BBB-PAMPA permeability): 50.3 ± 2.8 ×10⁻⁶ cm/s
BBB–PAMPA permeability −LogPe (BBB-PAMPA permeability): 4.3 log [cm/s]

CC(C)(C)/[N+]([O-])=C/c1cc2cccc(O)c2nc1Cl [QN 11, (Z)-N-tert-Butyl-1-(2-chloro-8-hydroxyquinolin-3-yl)methanimine oxide]
IC50 (hBChE): 12.4 ± 0.7 µM

COc1cccc2cc(/C=[N+](\[O-])C(C)(C)C)c(OCCCN3CCCCC3)nc12 [QN 1, (Z)-N-tert-Butyl-1-(8-methoxy-2-(3-(piperidin-1-yl)propoxy)quinolin-3-yl)methanimine oxide]
IC50 (hBChE): 0.707 ± 0.0454 µM

CC(C)(C)/[N+]([O-])=C/c1ccc2cccc(O)c2n1 [QN 18, (Z)-N-tert-Butyl-1-(8-hydroxyquinolin-2-yl)methanimine oxide]
EC50 [1]: 119 ± 1.2 µM
Inhibition of Aβ1–42 aggregation (Aβ1–42): n.i. ^e (n.i., no inhibition <20%)
Papp at 4 h, 100 μmol/L (BBB-PAMPA permeability): 43.7 ± 4.1 ×10⁻⁶ cm/s
BBB–PAMPA permeability −LogPe (BBB-PAMPA permeability): 4.4 log [cm/s]

COc1cccc2cc(/C=[N+](\[O-])C(C)(C)C)c(Cl)nc12 [QN 9, (Z)-N-tert-Butyl-1-(2-chloro-8-methoxyquinolin-3-yl)methanimine oxide]
IC50 (hBChE): 15.2 ± 1.1 µM

Oc1ccc(/C=C/c2cc(O)cc(O)c2)cc1 [resveratrol, reference compound]
EC50 [1]: 50.1 µM

COc1cccc2cc(/C=[N+](\[O-])Cc3ccccc3)c(OCCCN3CCCCC3)nc12 [QN 2, (Z)-N-Benzyl-1-(8-methoxy-2-(3-(piperidin-1-yl)propoxy)quinolin-3-yl)methanimine oxide]
IC50 (hAChE): 39.6 ± 6.1 µM
IC50 (hBChE): 0.415 ± 0.0167 µM

C#CCN1CCN(CCCOc2nc3c(OC)cccc3cc2/C=[N+](\[O-])Cc2ccccc2)CC1 [QN 4, (Z)-N-Benzyl-1-(8-methoxy-2-(3-(4-(prop-2-yn-1-yl)piperazin-1-yl)propoxy)quinolin-3-yl)methanimine oxide]
IC50 (hBChE): 3.06 ± 0.29 µM

C#CCN1CCN(CCCOc2cccc3cc(/C=[N+](\[O-])C(C)(C)C)c(Cl)nc23)CC1 [QN 7, (Z)-N-tert-Butyl-1-(2-chloro-8-(3-(4-(prop-2-yn-1-yl)piperazin-1-yl)propoxy)quinolin-3-yl)methanimine oxide]
IC50 (hBChE): 13.3 ± 0.9 µM

C#CCN1CCN(CCCOc2cccc3ccc(/C=[N+](\[O-])C(C)(C)C)nc23)CC1 [QN 15, (Z)-N-tert-Butyl-1-(8-(3-(4-(prop-2-yn-1-yl)piperazin-1-yl)propoxy)quinolin-2-yl)methanimine oxide]
Radical-scavenging DPPH assay EC50 [1]: n.a. ^d (n.a., not active–% DPPH reduced at 100 μmol/L concentration lower than 10%)
Inhibition of Aβ1–42 aggregation (Aβ1–42): n.i. ^e (n.i., no inhibition <20%)
Papp at 4 h, 100 μmol/L (BBB-PAMPA permeability): 72.2 ± 2.7 ×10⁻⁶ cm/s
BBB–PAMPA permeability −LogPe (BBB-PAMPA permeability): 4.1 log [cm/s]

C#CCN1CCN(CCCOc2nc3c(OC)cccc3cc2/C=[N+](\[O-])C(C)(C)C)CC1 [QN 3, (Z)-N-tert-Butyl-1-(8-methoxy-2-(3-(4-(prop-2-yn-1-yl)piperazin-1-yl)propoxy)quinolin-3-yl)methanimine oxide]
IC50 (hBChE): 2.06 ± 0.04 µM

[O-]/[N+](=C\c1cc2cccc(O)c2nc1Cl)Cc1ccccc1 [QN 12, (Z)-N-Benzyl-1-(2-chloro-8-hydroxyquinolin-3-yl)methanimine oxide]
IC50 (hBChE): 10.7 ± 0.7 µM
